These results are taken from patent publication US8557738B2, “Nitrogen-containing heterocyclic derivative and fungicide for agricultural and horticultural use” (Nippon Soda Co., Ltd., priority 2008, dated 2013).

Where two headings read alike, the source gives them in different places. Some results are limits rather than exact numbers.

Data set [1] concerns apple scab pathogen (Venturia inaequalis). Kind of data set: Apple scab control test. It counts as in vivo. As to conditions: 336 h, read-out: control value.
The subject of data set [2] is cucumber gray mold pathogen (Botrytis cinerea). Kind of data set: Cucumber gray mold control test. Format: in vivo. The conditions noted are these: 96 h, read-out: control value.
Where [3] appears, read: emulsion sprayed at 100 ppm active ingredient onto apple seedlings (Ralls Janet), lesions on leaves after 2 weeks vs untreated.
The mark [4] stands for this setting: emulsion sprayed at 100 ppm active ingredient onto cucumber seedlings (Sagami Hanjiro), lesions on leaves after 4 days vs untreated.

What is called melting point is the temperature, or range, at which the solid turns liquid.

For the compound `CC1(C)COc2ccccc2C(c2cnc3ccccc3c2)=N1` [B1-3, 3,3-Dimethyl-5-(3-quinolinyl)-2,3-dihydro-benzo[f][1,4]oxazepine], the melting point was in the range of 109 to 112 °C. Besides, in data set [1] (setting [3]), the pest or weed control at 100 ppm is at least 75%. Also, the pest or weed control at 100 ppm in data set [2] (setting [4]) was at least 75%.
Turning to `CC1(C)CN=C(c2cnc3ccccc3c2)c2ccccc2O1` [B1-9, 2,2-Dimethyl-5-(3-quinolinyl)-2,3-dihydro-benzo[f][1,4]oxazepine], the pest or weed control at 100 ppm in data set [1] (setting [3]) and in data set [2] (setting [4]) was at least 75% each time.
On to `CC1(C2CC2)CN=C(c2cnc3ccccc3c2)c2ccccc2O1` (centres unmarked) [B1-70, 2-Cyclopropyl-2-methyl-5-quinolin-3-yl-2,3-dihydro-benzo[f][1,4]oxazepine], for which the pest or weed control at 100 ppm in data set [1] (setting [3]) and in data set [2] (setting [4]) was at least 75% throughout.
`c1ccc2c(c1)OC1(CC1)CN=C2c1cnc2ccccc2c1` [B1-72, 5-Quinolin-3-yl-2,3-dihydro-benzo[f][1,4]oxazepine-2-spiro-cyclopropane] yielded a melting point of 102 to 104 °C. The pest or weed control at 100 ppm in data set [2] (setting [4]) is at least 75%.
As for `CC1(C)CN=C(c2cnc3ccccc3c2)c2cccc(Cc3ccccc3)c2O1` [B1-74, 9-Benzyl-2,2-dimethyl-5-quinolin-3-yl-2,3-dihydro-benzo[f][1,4]oxazepine], the pest or weed control at 100 ppm in data set [2] (setting [4]) was at least 75%.
Still for that read-out and setting: with `CC1(C)CN=C(c2cnc3ccccc3c2)c2cc(Cl)ccc2O1` [B1-77, 7-Chloro-2,2-dimethyl-5-quinolin-3-yl-2,3-dihydro-benzo[f][1,4]oxazepine] the figure was at least 75%.
`Cc1cccc2c1OC(C)(C)CN=C2c1cnc2c(F)cccc2c1` [B1-79, 5-(8-Fluoro-quinolin-3-yl)-2,2,9-trimethyl-2,3-dihydro-benzo[f][1,4]oxazepine]: the melting point was 151 to 153 °C. Further, in data set [1] (setting [3]), the pest or weed control at 100 ppm was at least 75%. Moreover, the pest or weed control at 100 ppm in data set [2] (setting [4]) was at least 75%.
As to `CC1(C)CN=C(c2cnc3ccccc3c2)c2cccc(Oc3ccccc3)c2O1` [B1-82, 2,2-Dimethyl-9-phenoxy-5-quinolin-3-yl-2,3-dihydro-benzo[f][1,4]oxazepine], the pest or weed control at 100 ppm in data set [1] (setting [3]) and in data set [2] (setting [4]) was at least 75% throughout.
`O=C1COc2ccccc2C(c2cnc3ccccc3c2)=N1` [B1-84, 5-Quinolin-3-yl-benzo[f][1,4]oxazepin-3-one] showed a melting point of 169 to 170 °C. Also, the pest or weed control at 100 ppm in data set [2] (setting [4]) is at least 75%.
On to `CC1(C)CN=C(c2cnc3ccccc3c2)c2ccccc2S1` [B2-6, 2,2-Dimethyl-5-(3-quinolinyl)-2,3-dihydro-benzo[f][1,4]thiazepine], for which the pest or weed control at 100 ppm in data set [1] (setting [3]) and in data set [2] (setting [4]) was at least 75% in each case.
With `CC1(C)CN(Cc2ccccc2)C(c2cnc3c(F)cccc3c2)c2cccc(Cl)c2O1` (centres unmarked) [B4-50, 4-Benzyl-9-chloro-5-(8-fluoro-quinolin-3-yl)-2,2-dimethyl-2,3,4,5-tetrahydro-benzo[f][1,4]oxazepine], the melting point fell in the range of 138 to 141 °C. Also, in data set [2] (setting [4]), the pest or weed control at 100 ppm was at least 75%.
With `CC1(C)C[N+]([O-])=C(c2cnc3c(F)cccc3c2)c2ccccc2O1` [B5-34, 5-(8-Fluoro-quinolin-3-yl)-2,2-dimethyl-2,3-dihydro-benzo[f][1,4]oxazepine 4-oxide], the pest or weed control at 100 ppm in data set [1] (setting [3]) and in data set [2] (setting [4]) was at least 75% in each case.
For the compound `CC1(C)CN2OC2(c2cnc3c(F)cccc3c2)c2ccccc2O1` (centres unmarked) [B6-34, 8b-(8-Fluoro-quinolin-3-yl)-3,3-dimethyl-2,3-dihydro-8bH-1,4-dioxa-1a-aza-benzo[a]cyclopropa[c]cycloheptene], the pest or weed control at 100 ppm in data set [1] and in data set [2] was at least 75% each time.
